Converted amounts (≈) assume the structure as drawn. “Also recorded” adds a separate entry of the source.
Assays:
[1] = test system: methicillin-resistant S. aureus (MRSA, ATCC BAA-41); assay: Microbroth dilution assay, MRSA; assay type: cell-based, Staphylococcus aureus; settings: microbroth dilution, concentration at which growth is reduced by 50%
Procedure: (§1) Compounds 1-8 were tested for antimicrobial activity against Staphylococcus aureus (SA, ATCC 25923), methicillin-resistant S. aureus (MRSA, ATCC BAA-41), multidrug-resistant S. aureus (MDRSA, ATCC BAA-44), Enterococcus faecium (EF, ATCC 49032), vancomycin-resistant E. Faecium (VRE, ATCC 700221), and Bacillus subtilis (ATCC 49343) using a modified disk diffusion assay and microbroth liquid dilution assays. For disk diffusion assays, agar plates seeded with suspensions of bacteria were prepared by adding 500 μL of a 24 h culture of bacteria to 100 mL of autoclaved Mueller Hinton II agar and cooled to 55° C. Seeded liquid agar (10 mL) was transferred immediately to square Petri dishes and allowed to cool for 1 h. Control drugs used for each microorganism included kanamycin (50 μg) for S. aureus, and nitrofurantoin (25 μg) for MRSA. Following incubation at 37° C. for 18 h, zones of inhibition were measured. MICso values for compounds 1 and 4-8 were determined using a microbroth dilution assay outlined in the Clinical and Laboratory Standards Institute methods for susceptibility tests for bacteria that grow aerobically. Briefly, single bacterial colonies were used to inoculate 4 mL of Trypticase Soy broth (BD) for overnight growth and inoculum for each were diluted to 5×10^5 CFU/mL using the 0.5 McFarland standard. In a 96 well plate (Costar, round bottom), control antibiotics (oxacillin for SA and MRSA, vancomycin for EF and VRE, chloramphenicol for B. subtilis) or natural product inhibitors were added to Muller Hinton II broth (for S. aureus, MRSA, and B. subtilis) or 10% brain heart infusion broth (for E. faecium and VRE) in the first column of the well plates, and serially diluted across the plate, reserving wells for a positive growth control (no treatment). 10 μL of diluted bacteria were added to all wells with the exception of those kept for broth blanks (MHII or brain heart infusion broth only). Plates were incubated at 37° C. overnight and read at absorbance 600 nm on a Molecular Devices plate reader. Growth curves were plotted and ICso values obtained using Kalidagraph software.

[2] = test system: vancomycin-resistant E. Faecium (VRE, ATCC 700221); assay: Agar disk diffusion assay, VREF; assay type: cell-based, Enterococcus faecium
Procedure: as §1

[3] = test system: murine leukemia cell line P388; assay: Cytotoxicity, P388; assay type: cell-based; settings: did not inhibit growth at concentrations as high as
[4] = test system: Staphylococcus aureus (SA, ATCC 25923); assay: Agar disk diffusion assay, S. aureus; assay type: cell-based
Procedure: as §1

[5] = test system: Gram-positive pathogens (S. aureus, B. subtilis, E. faecium, MRSA, MDRSA, VREF); assay: Disk diffusion and microbroth dilution assays, strains taken together; assay type: cell-based
Excerpt: Solid agar disk diffusion and microbroth dilution assays were used to evaluate the antimicrobial activities of compounds 1, hexaacetate 1a, and 4-8 toward clinically relevant, Gram-positive pathogens, including the drug-susceptible bacteria Staphylococcus aureus, Bacillus subtilis and Enterococcus faecium, and drug-resistant strains methicillin-resistant S. aureus (MRSA), multidrug-resistant S. aureus (MDRSA), and vancomycin-resistant E. faecium (VREF) (see Table 7, Example 2).
as §1, with “In a 96 well plate (Costar, round bottom), control antibiotics (oxacillin for SA and MRSA, vancomycin for EF and VRE, chloramphenicol for B. subtilis) or natural product inhibitors were added to Muller Hinton II broth (for S. aureus, MRSA, and B. subtilis) or 10% brain heart infusion broth (for E. faecium and VRE) in the first column of the well plates, and serially diluted across the plate, reserving wells for a positive growth control (no treatment). 10 μL of diluted bacteria were added to all wells with the exception of those kept for broth blanks (MHII or brain heart infusion broth only).” left out, “Growth curves were plotted and ICso values obtained using Kalidagraph software.” left out

recombinant E. coli FtsZ [6] = target: T1, recombinant E. coli FtsZ (Escherichia coli, UniProt P0A9A6); assay: FtsZ GTPase colorimetric (malachite green) assay; assay type: biochemical; settings: 2 μM FtsZ, 0.25 mM GTP, pH 6.5
Procedure: Solutions were incubated at room temperature for 5 min, followed by addition of 0.25 mM GTP. At the end of a 20-min incubation period, enzyme activity was quenched by addition of 50 μL Malachite Green solution and the wells read at A^625 on an absorbance plate reader.

recombinant E. coli FtsZ [7] = target: T1, recombinant E. coli FtsZ; assay: Saturation Transfer Difference (STD) NMR binding to FtsZ
Procedure: Saturation transfer difference (STD) NMR experiments were recorded with the carrier set at −1 or 12 ppm for on-resonance irradiation and at 40 ppm for off-resonance irradiation. […] Selective protein saturation (2 s) was accomplished by using a train of 50 ms Gauss-shaped pulses, each separated by a 1 ms delay, at an experimentally determined optimal power (49 dB on our probe); a T1ρ filter (30 ms) was incorporated to suppress protein resonances. Experiments were recorded using a minimum of 1024 scans and 32K points. On- and off-resonance spectra were processed independently, and subtracted to provide a difference spectrum.
Saturation Transfer Difference (STD) NMR is an NMR technique that provides atomic level detail of the epitope used by a small molecule ligand to bind its macromolecular (protein) receptor. […] Spectra of were recorded at 298 K with the carrier set at −1 or 12 ppm for on-resonance irradiation and 50 ppm for off-resonance irradiation. Selective protein saturation (duration ranging from 1 to 5 s) was accomplished using a train of 50 ms Gauss-shaped pulses, each separated by a 1 ms delay, at an experimentally determined optimal power (49 dB); a T1ρ filter (30 ms) was incorporated to suppress protein resonances. A minimum of 512 scans and 4000 points were used to ensure high quality data with good signal-to-noise. On- and off-resonance spectra were processed independently, and subtracted to provide a difference spectrum. […] STD enhancements were measured by integrating difference spectra where the peaks showing the strongest enhancements relative to the control spectra were used to normalize all non-overlapped peaks in the difference spectra.

recombinant E. coli FtsZ [8] = target: T1, recombinant E. coli FtsZ; assay: FtsZ polymerization assay by transmission electron microscopy; settings: 50 μM compound, 6 μM FtsZ, GTP 1 mM
Procedure: Protofilament formation of E. coli FtsZ was assessed by polymerization assays. […] Following an additional 5 minutes incubation period at room temperature, aliquots (5 μL) were adsorbed onto carbon films on lacey carbon supports on 400-mesh copper grids, rinsed with H2O, and exposed to 3% uranyl acetate for 5 minutes for negative staining. Images were acquired with an FEI Morgani transmission electron microscope, operating at 80 kV, and equipped with an AMT Advantage camera at 44,000× magnification.

[9] = test system: multidrug-resistant S. aureus (MDRSA, ATCC BAA-44); assay: Microbroth dilution assay, MDRSA; assay type: cell-based; settings: Staphylococcus aureus, ATCCBAA44
Procedure: (§2) Compounds 1-8 were tested for antimicrobial activity against Staphylococcus aureus (SA, ATCC 25923), methicillin-resistant S. aureus (MRSA, ATCC BAA-41), multidrug-resistant S. aureus (MDRSA, ATCC BAA-44), Enterococcus faecium (EF, ATCC 49032), vancomycin-resistant E. Faecium (VRE, ATCC 700221), and Bacillus subtilis (ATCC 49343) using a modified disk diffusion assay and microbroth liquid dilution assays. For disk diffusion assays, agar plates seeded with suspensions of bacteria were prepared by adding 500 μL of a 24 h culture of bacteria to 100 mL of autoclaved Mueller Hinton II agar and cooled to 55° C. Seeded liquid agar (10 mL) was transferred immediately to square Petri dishes and allowed to cool for 1 h. Control drugs used for each microorganism included kanamycin (50 μg) for S. aureus, and nitrofurantoin (25 μg) for MRSA. Following incubation at 37° C. for 18 h, zones of inhibition were measured. MICso values for compounds 1 and 4-8 were determined using a microbroth dilution assay outlined in the Clinical and Laboratory Standards Institute methods for susceptibility tests for bacteria that grow aerobically. […] Plates were incubated at 37° C. overnight and read at absorbance 600 nm on a Molecular Devices plate reader. […]

[10] = test system: Staphylococcus aureus (SA, ATCC 25923); assay: Microbroth dilution assay, S. aureus; assay type: cell-based; settings: concentration at which growth is reduced by 50%; for MIC50 (μg/mL) S. aureus: microbroth dilution
Procedure: as §1

[11] = test system: Enterococcus faecium (EF, ATCC 49032); assay: Microbroth dilution assay, E. faecium; assay type: cell-based; settings: concentration at which growth is reduced by 50%
Procedure: as §1

[12] = test system: Bacillus subtilis (ATCC 49343); assay: Microbroth dilution assay, B. subtilis; assay type: cell-based; settings: ATCC49343
Procedure: as §2

[13] = Lowest concentrations leading to 8-10 mm zones of inhibition
[14] = 100-fold excess of compound over FtsZ

T1 sequence (P0A9A6 whole entry): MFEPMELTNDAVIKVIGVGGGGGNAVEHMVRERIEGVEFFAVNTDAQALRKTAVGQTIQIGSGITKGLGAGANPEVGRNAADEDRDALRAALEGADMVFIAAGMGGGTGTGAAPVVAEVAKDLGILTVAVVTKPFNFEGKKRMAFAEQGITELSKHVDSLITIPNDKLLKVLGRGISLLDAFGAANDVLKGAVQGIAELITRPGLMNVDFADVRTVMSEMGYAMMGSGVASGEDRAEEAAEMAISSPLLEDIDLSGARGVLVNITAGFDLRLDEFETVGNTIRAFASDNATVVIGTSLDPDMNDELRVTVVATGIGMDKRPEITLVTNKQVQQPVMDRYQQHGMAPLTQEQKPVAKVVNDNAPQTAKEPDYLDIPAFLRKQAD

**Q.** How did the MIC50 ([1]; Staphylococcus aureus, read-out: MIC50 (μg/mL) MRSA) turn out when `Oc1cc(O)c2c(c1)C/C(Cl)=C\Cc1cc(c(Cl)cc1O)Oc1c(O)cc(cc1O)C/C(Cl)=C\Cc1cc(c(Cl)cc1O)O2` [Compound 1, chrysophaentin 1] was run?
**A.** 1.5 ± 0.7 µg/mL (≈ 2.21 µM)

**Q.** And the “MIC50 (μg/mL) MRSA” value [1]?
**A.** 1.5 ± 0.7 µg/mL (≈ 2.21 µM)

**Q.** And the “MIC50 (μg/mL) MRSA” value ([1]; listed as Chrysophaentin 1)?
**A.** 1.8 ± 0.6 µg/mL (≈ 2.65 µM)

**Q.** And the “MIC50 (μg/mL) MRSA” value ([1]; listed as chrysophaentin 1)?
**A.** 1.5 ± 0.7 µg/mL (≈ 2.21 µM)

**Q.** And the zone of inhibition at 2 µg/disc ([2]; Enterococcus faecium, at 2 μg/disk)?
**A.** 10 mm

**Q.** And the “Agar disk diffusion (μg/disk) VREF” value [2, 13]?
**A.** 2 μg/disk

**Q.** What about the “concentration without growth inhibition, P388” value [3] of the same molecule?
**A.** > 50 µg/mL

**Q.** What about the “Agar disk diffusion (μg/disk) S. aureus” value [4, 13] of the same molecule?
**A.** 2 μg/disk

**Q.** And the zone of inhibition at 2 µg/disc ([4]; Staphylococcus aureus, ATCC25923, at 2 μg/disk)?
**A.** 10 mm

**Q.** And the “potency relative to chrysophaentin 6” value [5]?
**A.** 3-5 times

**Q.** What about the IC50 (recombinant E. coli FtsZ [6]; IC50, inhibition of GTPase activity of FtsZ (molar), value in brackets) of the same molecule?
**A.** 9.9 µM

**Q.** And the IC50 (recombinant E. coli FtsZ [6]; IC50, inhibition of GTPase activity of FtsZ)?
**A.** 9.88 µM

**Q.** What about the “STD NMR combined enhancement, overlapped protons H-6′ and H-8” value (recombinant E. coli FtsZ [7]; [14]) of the same molecule?
**A.** ~50%

**Q.** And the “STD NMR enhancement, proton H-3” value (recombinant E. coli FtsZ [7]; [14])?
**A.** 100%

**Q.** What about the “STD NMR enhancement, proton H-3′” value (recombinant E. coli FtsZ [7]; [14]) of the same molecule?
**A.** 98%

**Q.** What about the “STD NMR enhancement, proton H-12” value (recombinant E. coli FtsZ [7]; [14]) of the same molecule?
**A.** 100%

**Q.** And the “STD NMR enhancement, proton H-14” value (recombinant E. coli FtsZ [7]; [14])?
**A.** 100%

**Q.** What about the “STD NMR enhancement, aromatic protons H-6 and H-6′” value (recombinant E. coli FtsZ [7]; as restated with the docked model) of the same molecule?
**A.** ~50%

**Q.** What about the “GTP-dependent FtsZ polymerization and protofilament formation (TEM)” value (recombinant E. coli FtsZ [8]) of the same molecule?
**A.** polymerization and protofilament formation were inhibited; also recorded: fully inhibited polymerization and protofilament formation

**Q.** What about the MIC50 [9] of the same molecule?
**A.** 1.3 ± 0.4 µg/mL (≈ 1.92 µM)

**Q.** What about the MIC50 ([10]; Staphylococcus aureus, ATCC25923, microbroth dilution, read-out: MIC50 (μg/mL) S. aureus) of the same molecule?
**A.** 1.8 ± 0.6 µg/mL (≈ 2.65 µM)

**Q.** What about the “MIC50 (μg/mL) S. aureus” value [10] of the same molecule?
**A.** 1.8 ± 0.6 µg/mL (≈ 2.65 µM)

**Q.** And the “MIC50 (μg/mL) S. aureus” value ([10]; listed as chrysophaentin 1)?
**A.** 1.8 ± 0.6 µg/mL (≈ 2.65 µM)

**Q.** What about the MIC50 ([11]; Enterococcus faecium, ATCC49032, microbroth dilution, read-out: MIC50 (μg/mL) E. faecium) of the same molecule?
**A.** 3.8 ± 1.9 µg/mL (≈ 5.6 µM)

**Q.** What about the “MIC50 (μg/mL) E. faecium” value ([11]; microbroth dilution) of the same molecule?
**A.** 3.5 ± 1.8 µg/mL (≈ 5.16 µM)

**Q.** What about the MIC50 [12] of the same molecule?
**A.** 7.3 ± 3.7 µg/mL (≈ 10.8 µM)

Reference: patent US8399689B2, “Chrysophaentin antimicrobial compounds that inhibit FtsZ protein” (The United States of America, as represented by the …, priority 2010, dated 2013)
